Structures are written as SMILES. Entries after “also recorded” stand apart in the source; their conditions may differ. Where two headings read alike, the source gives them in different places.

The target in assay [1] is T1, S1P1 (Homo sapiens (Human), UniProt P21453). The assay can be described thus: S1P1 binding assay (33P-S1P radioligand competition, membranes from CHO cells). The procedure:
Membranes were prepared from CHO cells expressing human S1P1. Cells pellets (1×10^9 cells/pellet) were suspended in buffer containing 20 mM HEPES (4-(2-hydroxyethyl)-1-piperazineethanesulfonic acid), pH 7.5, 50 mM NaCl, 2 mM EDTA (Ethylenediaminetetraacetic acid) and Protease Inhibitor cocktail (Roche), and disrupted on ice using the Polytron homogenizer. The homogenate was centrifuged at 20,000 rpm (48,000 g) and the supernatant was discarded. The membrane pellets were resuspended in buffer containing 50 mM HEPES, pH 7.5, 100 mM NaCl, 1 mM MgCl2, 2 mM EDTA and stored in aliquots at −80° C. after protein concentration determination.
(In general: In a radioligand displacement assay an active substance lowers the binding of a labelled ligand.)

The target in assay [2] is T1, S1P1. The assay can be described thus: Receptor [35S] GTPγS binding assay (S1P1 GTPγS), membranes from S1P1/CHO cells. Type of assay: biochemical. Conditions: for activity as an agonist of S1P1: result in words. The procedure: (§1) Receptor [^35S] GTPγS Binding Assays: (S1P1 GTPγS/S1P3 GTPγS)
(§2) Membranes prepared from S1P1/CHO cells or EDG3-Gal5-bla HEK293T cells (EDG3 equivalent S1P3) were added to the compound plate ([…], final protein 3 μg/well) with MULTIDROP®. [^35S]GTP (1250 Ci/mmol, Perkin Elmer) was diluted in assay buffer: 20 mM HEPES, pH7.5, 10 mM MgCl2, 150 mM NaCl, 1 mM EGTA (ethylene glycol tetraacetic acid), 1 mM DTT (Dithiothreitol), 10 μM GDP, 0.1% fatty acid free BSA, and 10 μg/ml Saponin to 0.4 nM. 40 μl of the [^35S] GTP solution was added to the compound plate with a final concentration of 0.2 nM. The reaction was kept at room temperature for 45 min. At the end of incubation, all the mixtures in the compound plate were transferred to Millipore 384-well FB filter plates via the VELOCITY11® Vprep liquid handler. The filter plate was washed with water 4 times by using the manifold Embla plate washer and dried at 60° C. for 45 min. MicroScint 20 scintillation fluid (30 μl) was added to each well for counting on the Packard TOPCOUNT®.
A larger value for the GTPγS S1P3 EC50 value indicated less activity in the GTPγS S1P3 binding assay.
Background: GTPγS resists hydrolysis and so accumulates on activated G proteins.

A further assay deals with S1P3 (EDG3) (Homo sapiens (Human), UniProt Q99500). The assay can be described thus: Receptor [35S] GTPγS binding assay (S1P3 GTPγS), membranes from EDG3-Gal5-bla HEK293T cells. It is filed as biochemical. On the procedure:
as §1
as §2, with “Compounds were loaded in a 384 Falcon v-bottom plate ([…] in a 11 point, 3-fold dilution). Membranes” for “Membranes”
A smaller value for GTPγS S1P1 EC50 value indicated greater activity for the compound in the GTPγS S1P1 binding assay. A larger value for the GTPγS S1P3 EC50 value indicated less activity in the GTPγS S1P3 binding assay. […]

The next assay deals with hS1P1 (Homo sapiens (Human), UniProt P21453). The assay can be described thus: hS1P1 ERK phosphorylation (S1P1 pERK) in hS1P1/CHO cells. Particulars: phosphate examples. Type of assay: cell-based. On the procedure: hS1P1 ERK Phosphorylation (S1P1 pERK)
hS1P1, sequence (P21453 whole entry): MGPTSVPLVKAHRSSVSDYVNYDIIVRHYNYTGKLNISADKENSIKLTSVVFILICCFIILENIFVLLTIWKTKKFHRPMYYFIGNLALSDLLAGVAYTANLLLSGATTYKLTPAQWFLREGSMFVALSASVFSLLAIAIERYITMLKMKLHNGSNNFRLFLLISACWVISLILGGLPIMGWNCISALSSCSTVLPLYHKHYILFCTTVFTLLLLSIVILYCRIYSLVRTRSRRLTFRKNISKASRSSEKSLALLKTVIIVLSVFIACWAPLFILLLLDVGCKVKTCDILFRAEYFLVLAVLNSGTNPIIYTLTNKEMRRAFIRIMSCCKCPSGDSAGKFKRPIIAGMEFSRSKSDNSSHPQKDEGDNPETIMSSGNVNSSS
hS1P1/CHO cells were plated into BD Amine 384-well plates the day before the assay. On the day of the assay, growth medium was removed and replaced with serum-free medium (Ham's F-12 Invitrogen) and incubated for 2 hours. Test compounds pre-diluted in HBSS (Gibco)/20 mM HEPES (Gibco) were transferred to the cell plates and incubated for 7 minutes at 37° C. Cells were lysed in lysis buffer (Perkin Elmer) and phospho-ERK was measured using the SureFire pERK kit (Perkin Elmer) as described by the manufacturer. Data was plotted as percentage activation of the test compound relative to the efficacy of 10 μM S1P.

Assay [3] relates to mouse EAE model (clinical score). The assay can be described thus: Mouse Experimental Autoimmune Encephalomyelitis Assay (EAE). Conditions: C57Bl/6 mice, prophylactic oral dosing regimen. It is filed as in vivo. On the procedure: Mouse Experimental Autoimmune Encephalomyelitis Assay (EAE)
Mice (C57BL/6 female, 6-8 weeks of age, Charles River, n=10 treatment group) were immunized subcutaneously with 150 μg MOG35-55 emulsified 1:1 with incomplete Freund's adjuvant (sigma) supplemented with 150 μg Mycobacterium tuberculosis H37RA (Difco Laboratories). 400 ng of pertussis toxin (CalBiochem) was injected intraperitoneally on the day of immunization and 2 day later. Clinical scoring and body weight were taken 3 times per week. Clinical scoring system: 0.5: partial tail weakness; 1: limp tail or waddling gait with tail tonicity; 1.5: waddling gait with partial tail weakness; 2: waddling gait with limp tail (ataxia); 2.5: ataxia with partial limb paralysis; 3: full paralysis of one limb; 3.5: full paralysis of one limbs with partial paralysis of a second limb; 4: full paralysis of two limbs; 4.5: moribund; 5: death. Mean clinical score was calculated by averaging the scores of all mice in each group. All procedures involving animals were reviewed and approved by the Institutional Animal Care Use Committee.

The subject of assay [4] is MRL/lpr spontaneous lupus model. The assay is described as follows: MRL/lpr Lupus Model (anti-dsDNA antibody titers, kidney histology). Particulars: MRL/lpr mice, p.o. daily, 0.06, 0.3, 1.5 mg/kg. Type of assay: in vivo. An excerpt: MRL/lpr Lupus Model: MRL/lpr is a spontaneous model of lupus. Male MRL/lpr mice (Jackson Laboratory) at the age of 12-14 weeks were enrolled for the study (N=12). […] Mice were bled every other week for anti-dsDNA antibodies measured by ELISA using pooled serum from diseased MRL/lpr mice as a positive comparator in each assay. The data were expressed in arbitrary units as a ratio of the titer of the test serum to the titer of the pooled MRL/lpr immune serum. At the end of study, one kidney was collected into 10% neutral buffered formalin and ZincTris fixatives. Fixed tissues were processed into paraffin blocks, sectioned at 3 μm, and stained with H&E or PASH. Kidney sections were graded using following criteria: Glomerular Damage: 1. Mesangial matrix thickening, cell proliferation, 2. Crescent formation, cellular deposits/casts in Bowman's space, 3. Cellular infiltration, mononuclear cells in glomerular tufts, 4. Fibrosis of Bowman's capsule. Tubular damage: 1. Infiltration of mononuclear cells, 2. Severity of tubular damage, 3. Protein casts. Tubulo-interstitial damage: 1. Fibrosis, 2. Infiltration of mononuclear cells. Each subcategory was assigned a score from 0-4, with the scores for glomerular indices representing the mean from 20 glomeruli per kidney. The total score for each mouse was the sum of the above 9 subcategories, with the highest possible score=36.

Assay [5] has as its system rat adjuvant-induced arthritis model (hind paw volume). The assay can be described thus: Rat Adjuvant Induced Arthritis Assay (AA). Type of assay: in vivo, Lewis rats. Particulars: Lewis rat, prophylactic oral dosing regimen. On the procedure:
Rat Adjuvant Induced Arthritis Assay (AA)
The rat adjuvant-induced arthritis model is an animal model for human rheumatoid arthritis.
Male Lewis rats (150-175 g; Harlan, n=8 treatment group) were immunized at the base of the tail with 100 μl of 10 mg/ml freshly ground Mycobacterium butyricum (Difco Laboratories) in incomplete Freund's adjuvant (sigma). Animals were dosed once daily with the test article (as a solution or suspension in the vehicle) or vehicle alone (polyethylene glycol 300, “PEG300”) starting from the day of immunization. The volumes of their hind paws were measured in a water displacement plethysmometer (Ugo Basile, Italy). The baseline paw measurements were taken before onset of the disease (between day 7 to day 10). The paw measurements were then taken three times a week until the end of the study on day 20 to 21. All procedures involving animals were reviewed and approved by the Institutional Animal Care Use Committee.

For assay [6], the system named is rat EAE model (clinical score). The assay can be described thus: Rat Experimental Autoimmune Encephalomyelitis (EAE). It is filed as in vivo, Lewis rats. Particulars: Lewis rat; for Clinical Score on Day 11 (Mean): rat EAE, prophylactic oral dosing. On the procedure:
Rat Experimental Autoimmune Encephalomyelitis (EAE):
Female Lewis rats (150-200 g; Harlan) were immunized at the base of the tail with 0.1 ml of a complete Freund's adjuvant emulsion containing 0.5 mg/mL guinea pig myelin basic protein (Genemed Synthesis) and 2 mg/mL Mycobacterium butyricum (Difco). Beginning on Day 7, rats (n=11/group) were scored individually at least 3×/wk according to the following scheme:
Average clinical scores were calculated for each treatment group on each day of assessment.

[7] abbreviates: membranes from S1P1/CHO cells, read-out: GTPγS S1P1 EC50.
[8] abbreviates: 33P-S1P competition, membranes from CHO cells expressing human S1P1, read-out: S1P1 Binding IC50.

T1 sequence (P21453 whole entry): as above
S1P3 (EDG3), sequence (Q99500 whole entry): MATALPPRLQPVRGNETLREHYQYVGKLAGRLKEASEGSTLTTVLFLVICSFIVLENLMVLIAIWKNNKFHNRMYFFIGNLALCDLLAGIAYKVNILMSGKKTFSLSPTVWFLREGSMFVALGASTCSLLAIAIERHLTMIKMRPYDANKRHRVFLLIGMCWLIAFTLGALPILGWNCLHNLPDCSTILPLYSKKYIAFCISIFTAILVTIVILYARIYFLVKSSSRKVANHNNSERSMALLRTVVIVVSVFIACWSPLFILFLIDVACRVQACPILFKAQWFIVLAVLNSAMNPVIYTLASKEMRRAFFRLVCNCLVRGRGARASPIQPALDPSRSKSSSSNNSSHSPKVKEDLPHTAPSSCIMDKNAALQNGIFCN

`CCC/C=C/CO[C@@H]1CCc2cc([C@H]3CC[C@](N)(COP(=O)(O)O)C3)ccc2C1` [compound 439]: the IC50 at S1P1 [1] (phosphate examples, read-out: S1P1 Binding) was less than 10 nM. Besides, the EC50 at S1P1 [2] (phosphate examples, read-out: S1P1 GTPγS) is 10 to 100 nM; on S1P3 (EDG3) (phosphate examples), greater than 625 nM; on hS1P1, less than 10 nM.

On to `COCCCCCC1CCc2cc([C@@H]3CC[C@](N)(COP(=O)(O)O)C3)ccc2C1` (single isomer, unassigned) [Example 692], for which the EC50 at S1P1 [2] (setting [7]) is 4.4 nM.

Take `COCCCCCC1CCc2cc([C@H]3CC[C@](N)(COP(=O)(O)O)C3)ccc2C1` (single isomer, unassigned) [Example 689]: the “activity as an agonist of S1P1” value on S1P1 [2] is “possessed activity as an agonist of S1P1”. Moreover, the “selectivity over S1P3” value on S1P3 (EDG3) (result in words, S1P1 versus S1P3 GTPγS) is reported as “selective over S1P3”.

On to `COc1ccccc1CC[C@@H]1CCc2cc([C@H]3CC[C@](N)(CO)C3)ccc2C1` [Example 681, ((1R,3S)-1-amino-3-((S)-6-(2-methoxyphenethyl)-5,6,7,8-tetrahydronaphthalen-2-yl)cyclopentyl)methanol], for which the “inhibition of disease progression as measured by clinical scores” value in assay [3] is reported as “showed inhibition of disease progression; also recorded: inhibit disease progression”. The “inhibition of disease progression as measured by anti-dsDNA titers and kidney histology” value in assay [4] was “showed inhibition of disease progression”.

For the compound `COCCCCC[C@H]1CCc2cc([C@H]3CC[C@](N)(CO)C3)ccc2C1` [Example 672, ((1R,3S)-1-amino-3-((S)-6-(5-methoxypentyl)-5,6,7,8-tetrahydronaphthalen-2-yl)cyclopentyl)methanol], in assay [5], the “inhibition of disease progression as measured by reduced paw swelling” value is on record as “showed inhibition of disease progression”.

For `CCOCCCC1CCc2cc([C@H]3CC[C@](N)(COP(=O)(O)O)C3)ccc2C1` (single isomer, unassigned) [Example 695], at S1P1 [1] (setting [8]), the IC50 is 119 nM. Moreover, the EC50 at S1P1 [2] (setting [7]) is 49 nM.

Consider `CCOCCC[C@@H]1CCc2cc([C@H]3CC[C@](N)(CO)C3)ccc2C1` [Example 679, ((1R,3S)-1-amino-3-((S)-6-(3-ethoxypropyl)-5,6,7,8-tetrahydronaphthalen-2-yl)cyclopentyl)methanol], for which the “inhibition of disease progression as measured by reduced paw swelling” value in assay [5] is given as “showed inhibition of disease progression”. The “inhibition of disease progression as measured by clinical scores” value in assay [3] is “showed inhibition of disease progression; also recorded: inhibit disease progression”. Moreover, the “inhibition of disease progression as measured by reduced clinical scores” value in assay [6] (prophylactic oral dosing regimen) is reported as “showed inhibition of disease progression”. Besides, the “Clinical Score on Day 11 (Mean)” value in assay [6] (0.3 mg/kg) amounted to 0.36; in assay [6] (1.0 mg/kg), 0.09; in assay [6] (3.0 mg/kg) it was 0.02.

Turning to `COc1cccc(CCC2CCc3cc([C@H]4CC[C@](N)(COP(=O)(O)O)C4)ccc3C2)c1` (single isomer, unassigned) [Example 693], the IC50 on S1P1 [1] (setting [8]) was 5.2 nM. Moreover, the EC50 on S1P1 [2] (setting [7]) is 19.2 nM.

As to `COc1ccccc1CCC1CCc2cc([C@H]3CC[C@](N)(COP(=O)(O)O)C3)ccc2C1` (single isomer, unassigned) [Example 697], the “activity as an agonist of S1P1” value at S1P1 [2] is recorded as “possessed activity as an agonist of S1P1”.
